Assay results as given in patent US11835532B2, “Green concentrated reagent for hemotology systems” (priority 2018, dated 2023).

Assay: Response of test reagent pools to osmolality, conductivity and pH adjusters
Type: physicochemical
Details: osmolality and conductivity adjuster added to working concentration reagent
Protocol: Assays were performed to characterize the response of the test reagents according to Table 2 to adjustments targeting changes to the pH, osmolality and conductivity of the reagent test pools.
Each of the test pools were adjusted for osmolality and conductivity with different chemicals, for example, sodium chloride, sodium sulfate, potassium sulfate, potassium bisulfate, imidazole and sodium phosphate monobasic. Adjusting for osmolality or conductivity parameters impacts all three parameters of pH, conductivity and osmolality.
Variation of pH, conductivity and osmolality was observed by adding increasing amounts of each adjuster to a test reagent pool. Amounts of each adjuster to achieve target midpoint were established. The target pH, osmolality and conductivity were pH 7.02-7.20, target osmolality 315-360 mOsm/Kg, and target conductivity 19.05-20.00 mS/cm.
All pH, conductivity and osmolality adjusters functioned as expected with no precipitation.

Row | Compound | ▴ Conductivity | ▴ Osmolality | ▴ pH/gm
1 | O=S(=O)([O-])[O-].[K+].[K+] [Potassium Sulfate] | +1.07 mS/cm/gm | +11.9 mOsm/kg/gm | +0.02
2 | [Cl-].[Na+] [Sodium Chloride] | +1.61 mS/cm/gm | +29.2 mOsm/kg/gm | 0.00
3 | O=S(=O)([O-])[O-].[Na+].[Na+] [Sodium Sulfate] | +0.88 mS/cm/gm | +14.1 mOsm/kg/gm | +0.01

Same assay, conditions: pH adjuster added to working concentration reagent

Row | Compound | Osmolality change per gram of adjuster | ▴ Conductivity | ▴ pH/gm
4 | Cl [6N Hydrochloric Acid] | +7.0 mOsm/kg/gm | +0.33 mS/cm/gm | −0.16
5 | [Na+].[OH-] [50% Sodium Hydroxide] | +13.7 mOsm/kg/gm | +0.38 mS/cm/gm | +0.39
6 | c1c[nH]cn1 [Imidazole] | +24.9 mOsm/kg/gm | +0.28 mS/cm/gm | +0.21
7 | O=P([O-])(O)O.[Na+] [Sodium Phosphate Mono] | +12.0 mOsm/kg/gm | +0.46 mS/cm/gm | −0.14
